Where a name gives a salt, the structure may show the parent alone. Read-outs that look alike come from different tables or passages of the source.
Test system: murine neural precursor cells (neurosphere cultures)
Assay: HTS of LOPAC library against secondary neurosphere cultures, MTT proliferation assay at 3 μM, day 7 (z score, P value)
Assay type: cell-based, mouse
[1] = LOPAC primary screen, neurosphere MTT proliferation, 3 μM, day 7
[2] = yes/no: significantly inhibited neurosphere proliferation (P<0.01) in the primary screen
[3] = LOPAC library screen at 3 μM, secondary neurosphere cultures, MTT
[4] = yes = significantly inhibited neurosphere proliferation (P<0.01) in the primary screen
[5] = LOPAC library screen, 3 μM, MTT, neurosphere cultures
[6] = yes/no: significantly inhibited neurosphere proliferation in primary screen
[7] = LOPAC library screen, 3 μM, MTT, secondary neurosphere cultures, day 7
[8] = LOPAC screen, neurosphere MTT proliferation, 3 μM, day 7
[9] = yes/no: significantly inhibited neurosphere proliferation (P<0.01) in primary screen
[10] = primary LOPAC screen, 3 μM, MTT, neurosphere proliferation
[11] = yes/no: significantly inhibited neurosphere proliferation in the primary screen

With `C#CCOC(=O)C1=CCCN(C)C1` [Arecaidine propargyl ester hydrobromide] the “Z Score” value was −9.931, the Z score [1] was −9.931 and the Activity [2] was “yes”.

For `COC(=O)C1=CCCN(C)C1` [Arecoline hydrobromide], the Activity was “no”, the “Z Score” value was −0.111 and the Z score was −0.111.

For `CC1=C(/C=C/C(C)=C/C=C/C(C)=C/C=C/C=C(C)/C=C/C=C(C)/C=C/C2=C(C)C(=O)[C@@H](O)CC2(C)C)C(C)(C)C[C@H](O)C1=O` [Astaxanthin], the “Z Score” value (168 h, 3 µM) was 1.571, the Z score (168 h, 3 µM) was 1.571 and the Activity [2] was “no”.

`C[N+]1(C)[C@@H]2CC[C@H]1C[C@@H](OC(=O)C(CO)c1ccccc1)C2` (some centres unmarked) [Atropine methyl bromide] was tested, and the “Z Score” value [3] was −0.8716, the Z score [1] was −0.872 and the Activity [4] was “no”.

With `C[N+]1(C)[C@@H]2CC[C@H]1C[C@@H](OC(=O)C(CO)c1ccccc1)C2` (some centres unmarked) [Atropine methyl nitrate] the “Z Score” value [5] was 1.292, the Z score [1] was 1.292 and the Activity [6] was “no”.

`CN1[C@@H]2CC[C@H]1C[C@@H](OC(=O)C(CO)c1ccccc1)C2` (some centres unmarked) [Atropine sulfate] was tested, and the Activity was “no”, the “Z Score” value was 1.244 and the Z score was 1.244.

`O=C(O)C1=CC(=C(c2ccc(O)c(C(=O)O)c2)c2ccc(O)c(C(=O)O)c2)C=CC1=O` [Aurintricarboxylic acid] was tested, and the “Z Score” value (168 h, 3 µM) was 0.5709 and the Z score (168 h, 3 µM) was 0.571.

With `Cn1cnc([N+](=O)[O-])c1Sc1ncnc2nc[nH]c12` [Azathioprine] the “Z Score” value [7] was −7.913, the Z score [1] was −7.913 and the Activity [4] was “yes”.

In the case of `O=C(O)CCCCCCCC(=O)O` [Azelaic acid], the “Z Score” value [5] is reported as 0.1057, the Z score [1] is reported as 0.106 and the Activity [6] is reported as “no”.

For `CCN1CCc2nc(N)oc2CC1.Cl.Cl` [B-HT 933 dihydrochloride], the “Z Score” value was −1.28, the Z score [8] was −1.280 and the Activity [9] was “no”.

In the case of `COc1ccccc1N1CCN(CCN2C(=O)CC3(CCCC3)CC2=O)CC1` [BMY 7378 dihydrochloride], the “Z Score” value [3] is reported as −0.6588, the Z score [8] is reported as −0.659 and the Activity [9] is reported as “no”.

In the case of `COc1ccccc1N1CCN(CCCCNC(=O)c2ccc3ccccc3c2)CC1` [BP 897], the “Z Score” value (168 h, 3 µM) is reported as −1.715, the Z score (168 h, 3 µM) is reported as −1.715 and the Activity [9] is reported as “no”.

With `OC(CN1CCN(c2cccc(Cl)c2)CC1)C(c1ccccc1)c1ccccc1` (centres unmarked) [BRL 15572] the “Z Score” value was 0.3117, the Z score [1] was 0.312 and the Activity [2] was “no”.

With `C[C@H](Cc1ccc(OCC(=O)[O-])cc1)NC[C@H](O)c1cccc(Cl)c1.[Na+]` [BRL 37344 sodium] the “Z Score” value was −1.725, the Z score [8] was −1.725 and the Activity [9] was “no”.

In the case of `Cl.O=C(Cc1ccc(Cl)c(Cl)c1)N1CCCCC1CN1CCCC1` (centres unmarked) [BRL 52537 hydrochloride], the “Z Score” value is reported as −2.761, the Z score [1] is reported as −2.761 and the Activity [2] is reported as “yes”.

With `CN1CCC(c2c[nH]c3ccc(O)cc23)CC1.O=C(O)/C=C\C(=O)O` [BRL 54443 maleate] the “Z Score” value was 0.3378, the Z score [8] was 0.338 and the Activity [9] was “no”.

In the case of `Cl.c1ccc2sc(C3(N4CCCCC4)CCCCC3)cc2c1` [BTCP hydrochloride], the “Z Score” value is reported as 0.8361, the Z score [1] is reported as 0.836 and the Activity [4] is reported as “no”.

In the case of `Cl.c1ccc2nc(C3=NCCN3)ccc2c1` [BU224 hydrochloride], the “Z Score” value is reported as 0.4045, the Z score [8] is reported as 0.404 and the Activity [9] is reported as “no”.

For `S=C=Nc1ccc2oc(C3=NCCN3)cc2c1` [BU99006], the “Z Score” value was 1.182, the Z score [1] was 1.182 and the Activity [9] was “no”.

`O=C(O)CCCCCCC1C(=O)NC(=O)N1CCC(O)C1CCCCC1` (centres unmarked) [BW 245C] was tested, and the “Z Score” value was 1.036, the Z score [1] was 1.036 and the Activity [6] was “no”.

`C=CC[N+](C)(C)c1ccc(CCC(=O)CCc2ccc([N+](C)(C)CC=C)cc2)cc1.[Br-].[Br-]` [BW 284c51] was tested, and the “Z Score” value was −0.4017, the Z score [10] was −0.402 and the Activity [11] was “no”.

For `CC(N)Cc1c[nH]c2ccc(OCc3cccs3)cc12` (centres unmarked) [BW 723C86], the “Z Score” value was 0.7247, the Z score [8] was 0.725 and the Activity [9] was “no”.

In the case of `CC(/C=C/c1cccc(Oc2ccc(F)cc2)c1)N(O)C(N)=O` (centres unmarked) [BWB70C], the “Z Score” value is reported as −0.8932, the Z score [8] is reported as −0.893 and the Activity [9] is reported as “no”.

`CC(C)(C)c1ccc(S(=O)(=O)/C=C/C#N)cc1` [Bay 11-7085] was tested, and the “Z Score” value was 2.18, the Z score [8] was 2.180 and the Activity [9] was “no”.

`C[C@H]1C[C@H]2[C@@H]3CCC4=CC(=O)C=C[C@]4(C)[C@@]3(Cl)[C@@H](O)C[C@]2(C)[C@@]1(O)C(=O)CO` [Beclomethasone] was tested, and the “Z Score” value [5] was 0.267, the Z score [10] was 0.267 and the Activity [11] was “no”.

`c1ccc2cc(-c3ncc[nH]3)ccc2c1` [Benazoline oxalate] was tested, and the “Z Score” value [3] was −0.3348, the Z score [8] was −0.335 and the Activity [9] was “no”.

In the case of `COc1cccc(OC)c1OCCNCC1CSc2ccccc2O1` (centres unmarked) [Benoxathian hydrochloride], the “Z Score” value (168 h, 3 µM) is reported as 0.2653, the Z score (168 h, 3 µM) is reported as 0.265 and the Activity [9] is reported as “no”.

`NC(CO)C(=O)NNCc1ccc(O)c(O)c1O` (centres unmarked) [Benserazide hydrochloride] was tested, and the Activity was “no”, the “Z Score” value [5] was 0.007467 and the Z score [8] was 0.007.

In the case of `NC(=O)c1ccccc1` [Benzamide], the Z score (168 h, 3 µM) is reported as 0.550 and the Activity [11] is reported as “no”.

In the case of `Cl.N=C(N)c1ccccc1` [Benzamidine hydrochloride], the Activity is reported as “no”, the “Z Score” value is reported as 1.509 and the Z score is reported as 1.509.

For `NC(=NCc1ccccc1)NC(=O)c1nc(Cl)c(N)nc1N` [Benzamil hydrochloride], the “Z Score” value [3] was −1.054, the Z score [8] was −1.054 and the Activity [9] was “no”.

In the case of `CN1[C@@H]2CC[C@H]1C[C@@H](OC(c1ccccc1)c1ccccc1)C2` [Benztropine mesylate], the “Z Score” value [7] is reported as −3.749, the Z score [1] is reported as −3.749 and the Activity [2] is reported as “yes”.

For `CC(C)C[C@H](NC(=O)[C@@H](O)[C@H](N)Cc1ccccc1)C(=O)O` [Bestatin hydrochloride], the “Z Score” value [5] was 0.6432, the Z score [8] was 0.643 and the Activity [9] was “no”.

In the case of `C[N+](C)(C)CC=O` [Betaine aldehyde chloride], the Activity is reported as “no”, the “Z Score” value (168 h, 3 µM) is reported as −0.07007 and the Z score (168 h, 3 µM) is reported as −0.070.

`C[N+](C)(C)CC(=O)O` [Betaine hydrochloride] was tested, and the “Z Score” value [7] was −2.668, the Z score [1] was −2.668 and the Activity [2] was “yes”.

`C[C@H]1C[C@H]2[C@@H]3CCC4=CC(=O)C=C[C@]4(C)[C@@]3(F)[C@@H](O)C[C@]2(C)[C@@]1(O)C(=O)CO` [Betamethasone] was tested, and the “Z Score” value [5] was 0.8811 and the Z score [8] was 0.881.

With `CC(C)NCC(O)COc1ccc(CCOCC2CC2)cc1` (centres unmarked) [Betaxolol hydrochloride] the “Z Score” value [5] was 0.9838, the Z score [8] was 0.984 and the Activity [9] was “no”.

With `CC(C[N+](C)(C)C)OC(N)=O` (centres unmarked) [Bethanechol chloride] the “Z Score” value [3] was −0.6493, the Z score [8] was −0.649 and the Activity [9] was “no”.

For `NC(=O)c1ccccc1` [Beuzamide], the “Z Score” value was 0.5498.

For `CC[N+](C)(C)Cc1ccccc1Br` [Bretylium tosylate], the Activity was “no”, the “Z Score” value [5] was −0.001709 and the Z score [8] was −0.002.

In the case of `C=CCc1ccccc1OCC(O)CNC1(C)CCC(C(C)(C)NC(=O)CBr)CC1` (centres unmarked) [Bromoacetyl alprenolol menthane], the “Z Score” value is reported as 1.442, the Z score [8] is reported as 1.442 and the Activity [9] is reported as “no”.

With `C[N+](C)(C)CCOC(=O)CBr.[Br-]` [Bromoacetylcholine bromide] the “Z Score” value was −0.3547, the Z score [8] was −0.355 and the Activity [9] was “no”.

With `O=C1O/C(=C/Br)CCC1c1cccc2ccccc12` (centres unmarked) [Bromoenol lactone] the “Z Score” value (168 h, 3 µM) was 0.2484, the Z score (168 h, 3 µM) was 0.248 and the Activity [11] was “no”.

`CCCC1O[C@@H]2C[C@H]3[C@@H]4CCC5=CC(=O)C=C[C@]5(C)[C@H]4[C@@H](O)C[C@]3(C)[C@]2(C(=O)CO)O1` (some centres unmarked) [Budesonide] was tested, and the “Z Score” value [7] was −1.994 and the Z score [8] was −1.994.

For `CCCCNc1cc(C(=O)O)cc(S(N)(=O)=O)c1Oc1ccccc1` [Bumetanide], the “Z Score” value [7] was −2.182, the Z score [8] was −2.182 and the Activity [9] was “no”.

`CC(NC(C)(C)C)C(=O)c1cccc(Cl)c1` (centres unmarked) [Bupropion hydrochloride] was tested, and the “Z Score” value [5] was 0.2671, the Z score [8] was 0.267 and the Activity [9] was “no”.

In the case of `O=C1CC2(CCCC2)CC(=O)N1CCCCN1CCN(c2ncccn2)CC1` [Buspirone hydrochloride], the Activity is reported as “no”, the “Z Score” value (168 h, 3 µM) is reported as −1.775 and the Z score (168 h, 3 µM) is reported as −1.775.

For `CCCN(CCC)C(=O)Cc1c(-c2ccc(Cl)cc2)nc2c(Cl)cc(Cl)cn12` [CB34], the “Z Score” value was −1.081, the Z score [8] was −1.081 and the Activity [9] was “no”.

With `NC(=O)c1cc(N2CC2)c([N+](=O)[O-])cc1[N+](=O)[O-]` [CB 1954] the “Z Score” value [3] was −1.07, the Z score [10] was −1.070 and the Activity [11] was “no”.

For `CC(C)(CO)Cc1cc(C(C)(C)C)c(O)c(C(C)(C)C)c1` [CGP-7930], the “Z Score” value was −0.411, the Z score [10] was −0.411 and the Activity [11] was “no”.

`CC(C)(C=O)Cc1cc(C(C)(C)C)c(O)c(C(C)(C)C)c1` [CGP-13501] was tested, and the “Z Score” value was −1.096, the Z score [10] was −1.096 and the Activity [11] was “no”.

With `CCn1cnc2c(Nc3cccc(Cl)c3)nc(N[C@@H]3CCCC[C@@H]3N)nc21.Cl` [CGP-74514A hydrochloride] the “Z Score” value was −9.117, the Z score [1] was −9.117 and the Activity [2] was “yes”.

`Nc1nc2ccc(Cl)cc2c2nc(-c3ccco3)nn12` [CGS-15943] was tested, and the “Z Score” value was 0.1783 and the Z score was 0.178.

In the case of `CCNC(=O)[C@H]1O[C@@H](n2cnc3c(N)nc(NCCc4ccc(CCC(=O)O)cc4)nc32)[C@H](O)[C@@H]1O` [CGS-21680 hydrochloride], the “Z Score” value (168 h, 3 µM) is reported as −1.225, the Z score (168 h, 3 µM) is reported as −1.225 and the Activity [2] is reported as “no”.

Reference: patent US8058243B2, “Method for treating a brain cancer with ifenprodil” (HSC Research and Development Limited Partnership, priority 2006, dated 2011)
